Measurements: patent publication US4098823A, “Monospiroalkyl derivatives of prostaglandins” (Miles Laboratories, Inc., priority 1977, dated 1978)
Values belong to the compound of their own block, whether it stands above or below them.

Assays:
[1] = test system: Blood Pressure and Heart Rate; assay: Effects on Blood Pressure and Heart Rate in the Anesthetized Cat; format: in vivo; conditions: Felis catus, intravenous, 0.01 to 10.0 mcg/kg, scored only on hypotension, read-out: Test D Activity Value (ED50 mmHg, decrease in blood pressure);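 further: Anesthetized cats given intravenous doses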
Protocol: The acute effects of test compounds on blood pressure and heart rate were determined in cats of either sex anesthetized with a mixture of pentobarbital sodium (35 mg/kg, i.v.) and barbital sodium (100 mg/kg, i.v.). Cannulas were placed in the trachea to allow adequate spontaneous ventilation, in a femoral artery for blood pressure recording with a strain gage transducer, and in a saphenous vein for drug administration. Heart rate was recorded by means of a cardiotachometer driven by the R wave of the electrocardiogram. After a period of 10 minutes of stable recordings of blood pressure and heart rate, the test compound was administered intravenously at doses increasing from 0.01 to 10.0 mcg/kg, spaced one log and injected at 10 minutes intervals. All doses were injected in a volume of 0.1 ml/kg. Modifications of blood pressure and heart rate induced by the test compound were expressed both in absolute units (mmHg and beats/minutes) and as percent of values recorded immediately before administration of each dose. Biphasic responses were tabulated in the order in which they occur. The direction of the observed changes was also noted (+ for increases and - for decreases).
Activity of compounds in this test was judged only on the basis of the degree of hypotension observed. Thus, the ED50 mmHg (dose decreasing blood pressure by 50 mmHg) was calculated graphically and the compound scored according to the following scale: […]

[2] = test system: Femoral Blood Flow; assay: Effects on Femoral Blood Flow in the Dog; format: in vivo; conditions: anesthetized mongrel dog, intraarterial, 0.001 to 10 mcg
Protocol: The peripheral vasodilator or constrictor effects of these compounds were determined in mongrel dogs of either sex, weighing between 10 and 20 kg anesthestized intravenously with 35 mg/kg of sodium pentobarbital. An external iliac artery was dissected immediately above the femoral arch for a length of approximately 5 cm and a previously calibrated, non-connulating electromagnetic flowmeter sensor with a lumen between 2.5 and 3.5 mm was placed snugly around the vessel. Cannulas were placed in a branch of the artery arising distally to the location of the flowmeter sensor for intraarterial drug administrations, in the contralateral femoral artery for systemic blood pressure recordings and in the trachea for artificial respiration with room air. Femoral blood flow and systemic blood pressure were continously recorded with an electromagnetic flowmeter and pressure tranducer, respectively.
After an adequate control period, test compounds were injected intraarterially at one log-spaced doses ranging from 0.001 to 10 mcg., in a volume of 0.5 ml and at 5 to 10 minute intervals. Maximum changes in bloodflow, as well as any variations in blood pressure, were tabulated for each dose in absolute values (ml/min. and mmHg). The calculations were made taking as control values those existing immediately before administration of each dose. The direction of the observed change (plus for increase and minus for decrease) was also noted. The dose changing bloodflow by 100 ml/min (ED100 ml/min) was calculated graphically and was used for scoring activity as follows: […]

[3] = test system: Rat Uterus; assay: Effects on the Rat Uterus in Vitro; format: cell-based; conditions: Rattus norvegicus; in vitro, 29° C; response 50% that of carbachol; read-out: Test F Rat Uterus, Activity Value (ED50)
Protocol: The uterine stimulant effect of test compounds was determined in segments of uterus obtained from rats (140-160 g) pretreated subcutaneously with 1 mg/kg of diethyl-stilbesterol 18 hours before the experiment. The tissues were placed in 10 ml chambers filled with de-Jalon solution at 29° C, were aerated and bubbled with 95% O2 and 5% CO2, and were prepared for isometric recording with force displacement transducers. Preparations were stretched to an initial tension of 1 g and were left undisturbed for 30 minutes. Carbachol (1 mcg/ml) was then added to the bath and a response was recorded. After a 10 minute interval the carbachol procedure was repeated. Responses to increasing concentrations of a test compound (0.001 to 10 mcg/ml with one log intervals) were then recorded every 10 minutes. Preparations were washed four times after each response. All doses of compounds were administered in a 0.1 ml volume. Because it has been observed that the magnitude of the second response to carbachol (approximately 10% greater than the first) is close to the maximal response of the tissue, such value was taken as a measure of the sensitivity of a particular segment. Responses to each concentration of the test compound were expressed in terms of percentage of the second response to carbachol and the ED50 (dose producing a response 50% that of carbachol) was calculated graphically. Activity was scored according to the following scale: […]

[4] = test system: chick rectum; assay: Cascade Assay, rectum (smooth muscle stimulant effect); format: cell-based; conditions: superfused, 50% of maximum (PGE1)
Protocol: (§1) The smooth muscle stimulant effects of test compounds were determined simultaneously in four different tissues that are known to be reactive to naturally occurring prostaglandins. Segments of rat stomach fundus, rat colon, chick rectum and rabbit aortic strip were obtained as described by: Vane, J. R., Brit. J. Pharmacol., 12: 344 (1957); Regoli, D. and Vane, J. R., Brit. J. Pharmacol., 23: 351 (1964); Mann, M. and West, G. B., Brit. J. Pharmacol., 5: 173 (1950); and Furchgott, R. F. and Bhadrakom, R., J. Pharmacol. Exper. Ther., 108: 129 (1953). One end of each preparation was tied to the bottom of a 10 ml tissue chamber and the other to a force displacement transducer (Grass FT-03) for continuous tension recording. The stomach, colon, and rectum segments were stretched to an initial tension of 1 g, while the aortic strip was subjected to 4 g. All preparations were left undisturbed for 1 hour prior to testing. The chambers were equipped with an external jacket through which water, maintained at 40° C, was circulated. Preparations were arranged one beneath the other in descending order (aorta, stomach, colon and rectum). Provision was made for bathing the four tissues successively so that they were superfused with the same fluid (Gaddum, H. J., Brit. J. Pharmacol., 6: 321 [1953]. The bathing fluid consisted of: Krebs bicarbonate solution aerated with a mixture of 95% O2 and 5% CO2 and warmed at 37° C; atropine sulphate (0.1 mcg/ml), phenoxybenzamine hydrochloride (0.1 mcg/ml), propranolol hydrochloride (3.0 mcg/ml), methysergide maleate (0.2 mcg/ml) and brompheniramine maleate (0.1 mcg/ml) were added to eliminate the possibility of smooth muscle responses being due to stimulation of cholinergic, adrenergic, serotonin or histamine receptors. The fluid was circulated by means of a roller pump and was allowed to drip over the preparations at a rate of 10 ml/minute.
(§2) Test compounds were diluted from stock solutions so as to administer quantities ranging from 0.001 100,000 ng in a volume of 0.5 ml. The compounds were applied by dripping on the uppermost tissue, at intervals of 10 to 20 minutes. Maximal increases in tension after each dose were measured and the results were used to plot dose-response curves. ED50 data (doses necessary to produce a response 50% of maximum) were then calculated graphically for each tissue.
(§3) Activity in each tissue was scored according to the following scale: […]

[5] = test system: Gastric Secretion; assay: Effects on Gastric Secretion in the Rat; format: in vivo; conditions: pylorus-ligated rat, subcutaneous, 2 x 1.5 mg/kg (total 3.0 mg/kg), 4 hours
Protocol: A procedure based on that described by Lipmann (J. Pharm. Pharmacol., 21:335 [1968]) was used to assess the influence of test compounds on gastric secretion. Rats of one sex weighing 150 to 200 g were randomly divided into groups of six animals each and fasted for 48 hours previously to the experiments, water being available adlibitum. The animals were anesthetized with ether, the abdomen was opened through a midline incision and the pylorus was ligated. Test compounds were diluted from stock solution so as to administer a dose of 1.5 mg/kg in a volume equivalent to 1 ml/kg. Subcutaneous injections were applied immediately after surgery and again 2 hours later, so that a total dose of 3.0 mg/kg was administered. Dilutions were made with phosphate buffer (pH 7.38) as recommended by Lee et al. (Prostaglandins 3:29 [1973]), in order to insure adequate stability of drugs at the subcutaneous depot. Each compound was tested in one group of rats; an additional control group received only the vehicle.
Four hours after pyloric ligation the animals were killed with ether, the cardias ligated and the stomachs removed. The volume of gastric secretion was measured and the contents centrifuged at 500 rpm for 10 minutes. Total acid in the supernatant was titrated against a 0.1 N sodium hydroxide solution and the amount expressed in mEq.
Volume and total acid values of the treated group were compared with those of the controls by the "T" test. Antisecretory activity was scored according to the following scale: […]

[6] = test system: rat stomach fundus; assay: Cascade Assay, stomach (smooth muscle stimulant effect); format: cell-based; conditions: superfused, 50% of maximum (PGE1)
Protocol: as §1, §2, §3

[7] = test system: rabbit aortic strip; assay: Cascade Assay, aorta (smooth muscle stimulant effect); format: cell-based; conditions: superfused, 50% of maximum (PGA2)
Protocol: as §1, §2, §3

[8] = test system: rat colon; assay: Cascade Assay, colon (smooth muscle stimulant effect); format: cell-based; conditions: superfused, 50% of maximum (PGF2α)
Protocol: as §1, §2, §3

EC50 [3]: > 10 µg/mL
SMILES: COC(=O)CCCCCC[C@@H]1[C@@H](/C=C/[C@@H](O)C2CC3(CCC3)C2)[C@H](O)C[C@@H]1O [TR-4139, Methyl 7-{3R,5S-dihydroxy-2R-[3S-hydroxy-3-(spiro[3.3]hept-2-yl)-1E-propenyl]cyclopent-1R-yl}heptanoate]
ED (50 mmHg) [1]: > 0.01 mg/kg | Test C Activity Value (ED100 ml/min, increase in femoral blood flow) [2]: 0 (>10.0) | Test E Cascade Assay, Rectum, Activity Value (ED50) [4]: 0 (>10000) | Test B Activity Value (% decrease in acidity, inhibition of gastric secretion) [5]: 0 (<26) | Test E Cascade Assay, Stomach, Activity Value (ED50) [6]: 0 (>10000) | Test E Cascade Assay, Aorta, Activity Value (ED50) [7]: 0 (>10000) | Test E Cascade Assay, Colon, Activity Value (ED50) [8]: 0 (>10000)

EC50 [3]: > 10 µg/mL
SMILES: O=C(O)CCC/C=C\C[C@H]1C(=O)CC[C@@H]1/C=C/[C@@H](O)C1CC2(CCC2)C1 (relative stereo) [TR-4146, dl 7-{5-oxo-2R-[3S-hydroxy-3-(spiro[3.3]hept-2-yl)-1E-propenyl]cyclopent-1R-yl}hept-5Z-enoic acid]
ED (50 mmHg) [1]: > 0.01 mg/kg | Test C Activity Value (ED100 ml/min, increase in femoral blood flow) [2]: 0 (>10.0) | Test B Activity Value (% decrease in acidity, inhibition of gastric secretion) [5]: 0 (<26) | Test E Cascade Assay, Stomach, Activity Value (ED50) [6]: 1 (1001 - 10000) | Test E Cascade Assay, Aorta, Activity Value (ED50) [7]: 0 (>10000) | Test E Cascade Assay, Colon, Activity Value (ED50) [8]: 2 (101 - 1000)

EC50 [3]: > 10 µg/mL
SMILES: O=C(O)CCC/C=C\C[C@H]1C(=O)CC[C@@H]1/C=C/[C@H](O)C1CC2(CCC2)C1 (relative stereo) [TR-4147, dl 7-{5-oxo-2R-[3R-hydroxy-3-(spiro[3.3]hept-2-yl)-1E-propenyl]cyclopent-1R-yl}hept-5Z-enoic acid]
ED (50 mmHg) [1]: 0.00011 to 0.001 mg/kg | Test C Activity Value (ED100 ml/min, increase in femoral blood flow) [2]: 0 (>10.0) | Test E Cascade Assay, Rectum, Activity Value (ED50) [4]: 2 (101 - 1000) | Test B Activity Value (% decrease in acidity, inhibition of gastric secretion) [5]: 0 (<26) | Test E Cascade Assay, Stomach, Activity Value (ED50) [6]: 2 (101 - 1000) | Test E Cascade Assay, Aorta, Activity Value (ED50) [7]: 1 (1001 - 10000) | Test E Cascade Assay, Colon, Activity Value (ED50) [8]: 0 (>10000)

Continued, compound first:

SMILES: COC(=O)CCCCCC[C@H]1C(=O)C[C@@H](O)[C@@H]1/C=C/[C@@H](O)C1CC2(CCC2)C1 [TR-4121, Methyl 7-{3R-hydroxy-5-oxo-2R-[3S-hydroxy-3-(spiro[3.3]hept-2-yl)-1E-propenyl]cyclopent-1R-yl}heptanoate]
ED (50 mmHg) [1]: > 0.01 mg/kg | Test C Activity Value (ED100 ml/min, increase in femoral blood flow) [2]: 2 (0.11 - 1.0) | EC50 [3]: > 10 µg/mL | Test E Cascade Assay, Rectum, Activity Value (ED50) [4]: 0 (>10000) | Test B Activity Value (% decrease in acidity, inhibition of gastric secretion) [5]: 1 (26-50, not significant) | Test E Cascade Assay, Stomach, Activity Value (ED50) [6]: 0 (>10000) | Test E Cascade Assay, Aorta, Activity Value (ED50) [7]: 0 (>10000) | Test E Cascade Assay, Colon, Activity Value (ED50) [8]: 0 (>10000)

SMILES: O=C(O)CCCCCC[C@H]1C(=O)CC[C@@H]1/C=C/[C@H](O)C1CC2(CCC2)C1 (relative stereo) [TR-4137, dl 7-{5-oxo-2R-[3R-hydroxy-3-(spiro[3.3]hept-2-yl)-1E-propenyl]cyclopent-1R-yl}heptanoic acid]
ED (50 mmHg) [1]: 0.00011 to 0.001 mg/kg | Test C Activity Value (ED100 ml/min, increase in femoral blood flow) [2]: 3 (0.01 - 0.1) | EC50 [3]: > 10 µg/mL | Test B Activity Value (% decrease in acidity, inhibition of gastric secretion) [5]: 3 (51-75) | Test E Cascade Assay, Stomach, Activity Value (ED50) [6]: 1 (1001 - 10000) | Test E Cascade Assay, Aorta, Activity Value (ED50) [7]: 0 (>10000) | Test E Cascade Assay, Colon, Activity Value (ED50) [8]: 0 (>10000)

SMILES: O=C(O)CCCCCC[C@H]1C(=O)CC[C@@H]1/C=C/[C@@H](O)C1CC2(CCC2)C1 (relative stereo) [TR-4136, dl 7-{5-oxo-2R-[3S-hydroxy-3-(spiro[3.3]hept-2-yl)-1E-propenyl]cyclopent-1R-yl}heptanoic acid]
ED (50 mmHg) [1]: > 0.01 mg/kg | Test C Activity Value (ED100 ml/min, increase in femoral blood flow) [2]: 0 (>10.0) | EC50 [3]: > 10 µg/mL | Test E Cascade Assay, Rectum, Activity Value (ED50) [4]: 1 (1001 - 10000) | Test B Activity Value (% decrease in acidity, inhibition of gastric secretion) [5]: 1 (26-50, not significant) | Test E Cascade Assay, Stomach, Activity Value (ED50) [6]: 2 (101 - 1000) | Test E Cascade Assay, Aorta, Activity Value (ED50) [7]: 0 (>10000) | Test E Cascade Assay, Colon, Activity Value (ED50) [8]: 0 (>10000)

SMILES: COC(=O)CCCCCC[C@@H]1[C@@H](/C=C/[C@@H](O)C2CC3(CCC3)C2)[C@H](O)C[C@H]1O [TR-4138, Methyl 7-{3R, 5R-dihydroxy-2R-[3S-hydroxy-3-(spirol[3.3]hept-2-yl)-1E-propenyl]cyclopent-1R-yl}heptanoate]
ED (50 mmHg) [1]: > 0.01 mg/kg | EC50 [3]: > 10 µg/mL | Test E Cascade Assay, Rectum, Activity Value (ED50) [4]: 0 (>10000) | Test E Cascade Assay, Stomach, Activity Value (ED50) [6]: 0 (>10000) | Test E Cascade Assay, Aorta, Activity Value (ED50) [7]: 0 (>10000) | Test E Cascade Assay, Colon, Activity Value (ED50) [8]: 0 (>10000)
